Measured values from ChEMBL document CHEMBL1201862, “PubChem BioAssay data set” (2004).
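Five compound concentrations were applied to cells in 96-well plates for 48 hours; endpoints were derived by simple linear interpolation of the resulting dose-response curve. GI50 = concentration required for 50% inhibition of growth.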 Active and inactive are the calls of the source. Cut-off read from the data, not from the text of the source: active = GI50 up to about 1.1 µM and inactive = higher.

Columns and labels:
Test in all cases: NCI anticancer screen, dose series, 48 h
OVCAR-4 = tested on: OVCAR-4
SK-MEL-5 = tested on: SK-MEL-5
HL-60 = tested on: HL-60
IGROV-1 = tested on: IGROV-1
HT-29 = tested on: HT-29
U-251 = tested on: U-251
NCI-H23 = tested on: NCI-H23
KM-20L2 = tested on: KM-20L2
HOP-18 = tested on: HOP-18
OVCAR-5 = tested on: OVCAR-5
SN12C = tested on: SN12C
SNB-78 = tested on: SNB-78
COLO 205 = tested on: COLO 205
DLD-1 = tested on: DLD-1
CAKI-1 = tested on: CAKI-1
K562 = tested on: K562
HOP-92 = tested on: HOP-92
DMS-273 = tested on: DMS-273
UO-31 = tested on: UO-31
SF-295 = tested on: SF-295
UACC-257 = tested on: UACC-257
XF498 = tested on: XF498
DMS-114 = tested on: DMS-114
A549 = tested on: A549
HCC 2998 = tested on: HCC 2998
SK-OV-3 = tested on: SK-OV-3
MOLT-4 = tested on: MOLT-4
A498 = tested on: A498
M14 = tested on: M14
Malme-3M = tested on: Malme-3M
M19-MEL = tested on: M19-MEL
SW-620 = tested on: SW-620
EKVX = tested on: EKVX
SF-268 = tested on: SF-268
KM12 = tested on: KM12
NCI-H226 = tested on: NCI-H226
UACC-62 = tested on: UACC-62
ACHN = tested on: ACHN
SNB-19 = tested on: SNB-19
RXF 631 = tested on: RXF 631
LXFL 529 = tested on: LXFL 529
SK-MEL-28 = tested on: SK-MEL-28
NCI-H522 = tested on: NCI-H522
HCT-116 = tested on: HCT-116
RXF 393 = tested on: RXF 393
SR = tested on: SR
NCI-H460 = tested on: NCI-H460
HCT-15 = tested on: HCT-15
786-0 = tested on: 786-0
OVCAR-8 = tested on: OVCAR-8
CCRF-CEM = tested on: CCRF-CEM
TK-10 = tested on: TK-10
SF-539 = tested on: SF-539
SK-MEL-2 = tested on: SK-MEL-2
SNB-75 = tested on: SNB-75
HOP-62 = tested on: HOP-62
RPMI-8226 = tested on: RPMI-8226
LOX IMVI = tested on: LOX IMVI
OVCAR-3 = tested on: OVCAR-3

Compound: O=C(c1ccccc1)C1OC12C(=O)Nc1c(Cl)cc(Cl)cc12 (centres undefined)
- GI50 (OVCAR-4): 8.2 µM (inactive)
- GI50 (SK-MEL-5): > 74.3 µM (inactive)
- GI50 (HL-60): 16.4 µM (inactive)
- GI50 (IGROV-1): > 59.4 µM (inactive)
- GI50 (HT-29): 33.6 µM (inactive)
- GI50 (U-251): 41.5 µM (inactive)
- GI50 (NCI-H23): 58.2 µM (inactive)
- GI50 (KM-20L2): 72.1 µM (inactive)
- GI50 (HOP-18): > 54.7 µM (inactive)
- GI50 (OVCAR-5): > 100 µM (inactive)
- GI50 (SN12C): 27.2 µM (inactive)
- GI50 (SNB-78): > 50.5 µM (inactive)
- GI50 (COLO 205): 19.7 µM (inactive)
- GI50 (DLD-1): 18.6 µM (inactive)
- GI50 (CAKI-1): 24.8 µM (inactive)
- GI50 (K562): 15.3 µM (inactive)
- GI50 (HOP-92): > 35.9 µM (inactive)
- GI50 (DMS-273): 15.9 µM (inactive)
- GI50 (UO-31): > 57.1 µM (inactive)
- GI50 (SF-295): 47.2 µM (inactive)
- GI50 (UACC-257): > 100 µM (inactive)
- GI50 (XF498): 10.7 µM (inactive)
- GI50 (DMS-114): 30.1 µM (inactive)
- GI50 (A549): > 64.9 µM (inactive)
- GI50 (HCC 2998): > 92.3 µM (inactive)
- GI50 (SK-OV-3): > 53 µM (inactive)
- GI50 (MOLT-4): 10.2 µM (inactive)
- GI50 (A498): > 92 µM (inactive)
- GI50 (M14): 31.5 µM (inactive)
- GI50 (Malme-3M): > 74.5 µM (inactive)
- GI50 (M19-MEL): 27 µM (inactive)
- GI50 (SW-620): 16.1 µM (inactive)
- GI50 (EKVX): 57.8 µM (inactive)
- GI50 (SF-268): 35.2 µM (inactive)
- GI50 (KM12): > 100 µM (inactive)
- GI50 (NCI-H226): 5.6 µM (inactive)
- GI50 (UACC-62): 29.9 µM (inactive)
- GI50 (ACHN): 23.8 µM (inactive)
- GI50 (SNB-19): 66.2 µM (inactive)
- GI50 (RXF 631): 27 µM (inactive)
- GI50 (LXFL 529): 23.6 µM (inactive)
- GI50 (SK-MEL-28): > 100 µM (inactive)
- GI50 (NCI-H522): 17.5 µM (inactive)
- GI50 (HCT-116): 23.7 µM (inactive)
- GI50 (RXF 393): 24.4 µM (inactive)
- GI50 (SR): 11.6 µM (inactive)
- GI50 (NCI-H460): 30.3 µM (inactive)
- GI50 (HCT-15): 24.3 µM
- GI50 (786-0): 16.3 µM (inactive)
- GI50 (OVCAR-8): 17 µM (inactive)
- GI50 (CCRF-CEM): 8.65 µM (inactive)
- GI50 (TK-10): > 94.4 µM (inactive)
- GI50 (SF-539): 45.8 µM (inactive)
- GI50 (SK-MEL-2): 99.1 µM (inactive)
- GI50 (SNB-75): 7.87 µM (inactive)
- GI50 (HOP-62): > 55.2 µM (inactive)
- GI50 (RPMI-8226): 47.5 µM (inactive)
- GI50 (LOX IMVI): 23.4 µM (inactive)
- GI50 (OVCAR-3): 60.3 µM (inactive)
